Data published in ChEMBL document CHEMBL5608208, “Design, synthesis of griseofamine A derivatives and development of potent antibacterial agents against MRSA” (Eur J Med Chem, 2024).
In brackets after ≈: the same amount, converted by molar mass. Activity calls are given as the source filed them. No cut-off for these calls is given here.

Legend:
[1] = system: Staphylococcus aureus; assay: Antibacterial activity against methicillin resistant Staphylococcus aureus ATCC 43300 incubated for 18 hrs by serial two-fold dilution method; type: functional
[2] = system: Staphylococcus epidermidis; assay: Antibacterial activity against Staphylococcus epidermidis ATCC 12228 incubated for 18 hrs by serial two-fold dilution method; type: functional
[3] = system: Staphylococcus aureus; assay: Antibacterial activity against methicillin resistant Staphylococcus aureus ATCC 33592 incubated for 18 hrs by serial two-fold dilution method; type: functional
[4] = system: Staphylococcus aureus; assay: Antibacterial activity against Staphylococcus aureus ATCC 29213 incubated for 18 hrs by serial two-fold dilution method; type: functional
[5] = system: Staphylococcus aureus; assay: Bactericidal activity against methicillin resistant Staphylococcus aureus ATCC 33592 incubated for 18 to 24 hrs; type: functional; settings: time 18-24 hrs
[6] = system: Staphylococcus aureus; assay: Potency index, ratio of griseofamine A MIC to test compound MIC for antibacterial activity against methicillin resistant Staphylococcus aureus ATCC 43300; type: functional
[7] = system: Staphylococcus epidermidis; assay: Bactericidal activity against Staphylococcus epidermidis ATCC 12228 incubated for 18 to 24 hrs; type: functional; settings: time 18-24 hrs
[8] = system: Staphylococcus aureus; assay: Bactericidal activity against Staphylococcus aureus ATCC 29213 incubated for 18 to 24 hrs; type: functional; settings: time 18-24 hrs
[9] = system: Staphylococcus aureus; assay: Bactericidal activity against methicillin resistant Staphylococcus aureus ATCC 43300 incubated for 18 to 24 hrs; type: functional; settings: time 18-24 hrs
[10] = system: Staphylococcus aureus; assay: Potency index, ratio of griseofamine A MIC to test compound MIC for antibacterial activity against methicillin resistant Staphylococcus aureus ATCC 33592; type: functional
[11] = system: Staphylococcus aureus; assay: Potency index, ratio of vancomycin MIC to test compound MIC for antibacterial activity against methicillin resistant Staphylococcus aureus ATCC 33592; type: functional
[12] = system: Staphylococcus aureus; assay: Potency index, ratio of vancomycin MIC to test compound MIC for antibacterial activity against methicillin resistant Staphylococcus aureus ATCC 43300; type: functional
[13] = system: Staphylococcus aureus; assay: Antibacterial activity against methicillin resistant Staphylococcus aureus ATCC 43300 infected in ICR mouse systemic infection model at 2.5 mg/kg, ip pretreated with bacteria for 30 mins followed by compound addition and measured for 7 days; type: functional; settings: time 7 day
[14] = system: Staphylococcus aureus; assay: Bactericidal activity against methicillin resistant Staphylococcus aureus ATCC 33592 at 2.5 times MIC measured after 12 hrs by time-kill kinetics assay; type: functional, organism-based
[15] = system: Staphylococcus aureus; assay: Bactericidal activity against methicillin resistant Staphylococcus aureus ATCC 33592 at 2.5 times MIC by time-kill kinetics assay; type: functional, organism-based
[16] = system: Staphylococcus epidermidis; assay: Drug resistance development in Staphylococcus epidermidis ATCC 12228 assessed as increase in MIC value measured after 8 passages by broth microdilution method; type: functional
[17] = system: Staphylococcus aureus; assay: Potency index, ratio of griseofamine A MIC to test compound MIC for antibacterial activity against Staphylococcus aureus ATCC 29213; type: functional
[18] = system: Staphylococcus aureus; assay: Potency index, ratio of vancomycin MIC to test compound MIC for antibacterial activity against Staphylococcus aureus ATCC 29213; type: functional

| SMILES | MIC [1] | MIC [2] | MIC [3] | MIC [4] | further results |
| --- | --- | --- | --- | --- | --- |
| CCn1c2c(c3ccccc31)C[C@H]1C(=O)/C(=C(\C)O)C(=O)N1[C@@H]2c1ccc(-c2ccc(F)cc2)cc1 | 0.125 µg/mL (≈ 0.26 µM) | 0.25 µg/mL (≈ 0.52 µM) | 0.25 µg/mL (≈ 0.52 µM) | 0.25 µg/mL (≈ 0.52 µM) | – |
| CC(C)=CCc1cccc2[nH]c3c(c12)C[C@H]1C(=O)/C(=C(\C)O)C(=O)N1[C@@H]3C | 8 µg/mL (≈ 22 µM) | 8 µg/mL (≈ 22 µM) | 8 µg/mL (≈ 22 µM) | 8 µg/mL (≈ 22 µM) | – |
| C/C(O)=C1\C(=O)[C@@H]2Cc3c([nH]c4ccccc34)[C@@H](c3ccc(-c4ccc(OC(F)(F)F)cc4)cc3)N2C1=O | 0.063 µg/mL (≈ 0.122 µM) | 0.125 µg/mL (≈ 0.241 µM) | 0.063 µg/mL (≈ 0.122 µM) | 0.063 µg/mL (≈ 0.122 µM) | MBC [5]: 4 µg/mL (≈ 7.71 µM); Ratio [6]: 128; MBC [7]: 1 µg/mL (≈ 1.93 µM); MBC [8]: 4 µg/mL (≈ 7.71 µM); MBC [9]: 4 µg/mL (≈ 7.71 µM); Ratio [10]: 128; Ratio [11]: 8; Ratio [12]: 8 |
| C/C(O)=C1\C(=O)[C@@H]2Cc3c([nH]c4ccccc34)[C@@H](c3ccc(-c4ccc(C(F)(F)F)cc4)o3)N2C1=O | 0.25 µg/mL (≈ 0.508 µM) | 0.25 µg/mL (≈ 0.508 µM) | 0.25 µg/mL (≈ 0.508 µM) | 0.25 µg/mL (≈ 0.508 µM) | – |
| C/C(O)=C1\C(=O)[C@@H]2Cc3c([nH]c4ccccc34)[C@@H](c3ccc(-c4ccc(F)cc4)o3)N2C1=O | 0.5 µg/mL (≈ 1.13 µM) | 0.5 µg/mL (≈ 1.13 µM) | 0.5 µg/mL (≈ 1.13 µM) | 0.5 µg/mL (≈ 1.13 µM) | – |
| CN[C@H](CC(C)C)C(=O)N[C@H]1C(=O)N[C@@H](CC(N)=O)C(=O)N[C@H]2C(=O)N[C@H]3C(=O)N[C@H](C(=O)N[C@H](C(=O)O)c4cc(O)cc(O)c4-c4cc3ccc4O)[C@H](O)c3ccc(c(Cl)c3)Oc3cc2cc(c3O[C@@H]2O[C@H](CO)[C@@H](O)[C@H](O)[C@H]2O[C@H]2C[C@](C)(N)[C@H](O)[C@H](C)O2)Oc2ccc(cc2Cl)[C@H]1O [VANCOMYCIN] | – | 0.5 µg/mL (≈ 0.345 µM) | – | – | Activity [13]: 62.5%; Activity [14]: inactive; MBC [5]: 1 µg/mL (≈ 0.69 µM); Activity [15]: Active; MBC [7]: 0.25 µg/mL (≈ 0.173 µM); MBC [8]: 1 µg/mL (≈ 0.69 µM); MIC [16]: 0.5 µg/mL; MBC [9]: 1 µg/mL (≈ 0.69 µM) |
| CCc1ccc(-c2ccc([C@@H]3c4[nH]c5ccccc5c4C[C@H]4C(=O)/C(=C(\C)O)C(=O)N34)cc2)cc1 | 0.25 µg/mL (≈ 0.54 µM) | 0.25 µg/mL (≈ 0.54 µM) | 0.25 µg/mL (≈ 0.54 µM) | 0.5 µg/mL (≈ 1.08 µM) | – |
| O=C1/C(=C(/O)c2cccs2)C(=O)N2[C@H](c3ccc(-c4cc(F)cc(F)c4)cc3)c3[nH]c4ccccc4c3C[C@@H]12 | 0.125 µg/mL (≈ 0.232 µM) | 0.25 µg/mL (≈ 0.464 µM) | 0.25 µg/mL (≈ 0.464 µM) | 0.25 µg/mL (≈ 0.464 µM) | – |
| CC/C(O)=C1\C(=O)[C@@H]2Cc3c([nH]c4ccccc34)[C@@H](c3ccc(-c4cc(F)cc(F)c4)cc3)N2C1=O | 0.063 µg/mL (≈ 0.13 µM) | 0.125 µg/mL (≈ 0.258 µM) | 0.063 µg/mL (≈ 0.13 µM) | 0.063 µg/mL (≈ 0.13 µM) | – |
| C/C(O)=C1\C(=O)[C@@H]2Cc3c([nH]c4ccccc34)[C@@H](c3ccc(-c4ccccc4F)cc3)N2C1=O | 0.25 µg/mL (≈ 0.553 µM) | 0.25 µg/mL (≈ 0.553 µM) | 0.25 µg/mL (≈ 0.553 µM) | 0.125 µg/mL (≈ 0.276 µM) | – |
| C/C(O)=C1\C(=O)[C@@H]2Cc3c(n(CC4CC4)c4ccccc34)[C@@H](c3ccc(-c4ccc(F)cc4)cc3)N2C1=O | 0.125 µg/mL (≈ 0.247 µM) | 0.25 µg/mL (≈ 0.494 µM) | 0.125 µg/mL (≈ 0.247 µM) | 0.125 µg/mL (≈ 0.247 µM) | – |
| C/C(O)=C1\C(=O)[C@@H]2Cc3c([nH]c4ccccc34)[C@@H](c3ccc(-c4ccccc4)cc3)N2C1=O | – | – | – | 0.125 µg/mL (≈ 0.288 µM) | Ratio [17]: 64; Ratio [18]: 4 |
| C/C(O)=C1\C(=O)[C@@H]2Cc3c([nH]c4ccccc34)[C@@H](c3ccc(-c4ccc(F)cc4F)cc3)N2C1=O | 0.125 µg/mL (≈ 0.266 µM) | 0.25 µg/mL (≈ 0.531 µM) | 0.25 µg/mL (≈ 0.531 µM) | 0.125 µg/mL (≈ 0.266 µM) | – |
| O=C1/C(=C(/O)c2ccccc2)C(=O)N2[C@H](c3ccc(-c4cc(F)cc(F)c4)cc3)c3[nH]c4ccccc4c3C[C@@H]12 | 0.125 µg/mL (≈ 0.235 µM) | 0.25 µg/mL (≈ 0.469 µM) | 0.125 µg/mL (≈ 0.235 µM) | 0.25 µg/mL (≈ 0.469 µM) | – |
| C/C(O)=C1\C(=O)[C@@H]2Cc3c([nH]c4ccccc34)[C@@H](c3ccc(-c4ccc(C)cc4)cc3)N2C1=O | 0.125 µg/mL (≈ 0.279 µM) | 0.25 µg/mL (≈ 0.557 µM) | 0.25 µg/mL (≈ 0.557 µM) | 0.125 µg/mL (≈ 0.279 µM) | – |
| O=C1CC(=O)N2[C@H](c3ccc(-c4cc(F)cc(F)c4)cc3)c3[nH]c4ccccc4c3C[C@@H]12 | – | > 4 µg/mL | 4 µg/mL (≈ 9.34 µM) | > 4 µg/mL | – |
| O=C1/C(=C(/O)c2ccc(F)cc2)C(=O)N2[C@H](c3ccc(-c4cc(F)cc(F)c4)cc3)c3[nH]c4ccccc4c3C[C@@H]12 | – | 0.5 µg/mL (≈ 0.908 µM) | 0.5 µg/mL (≈ 0.908 µM) | 0.5 µg/mL (≈ 0.908 µM) | – |
